Reference: PubChem BioAssay (NCI)
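Grown in 96-well plates, cells were treated for 48 hours with each compound at five concentrations. Insufficient inhibition: endpoint recorded as highest concentration tested. At the GI50, growth is halved. TGI denotes the concentration required for complete inhibition of growth.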

Legend:
Test in all cases: inhibition of tumour cell growth, NCI panel, 48 h
[1] = test system: CAKI-1 renal
[2] = test system: CCRF-CEM leukemia
[3] = test system: HCT-116 colon
[4] = test system: HOP-62 NSCLC
[5] = test system: HT29 colon
[6] = test system: KM12 colon
[7] = test system: RPMI-8226 leukemia
[8] = test system: RXF 393 renal
[9] = test system: SK-MEL-2 melanoma
[10] = test system: SN12C renal

Compound	TGI [1] [µM]	TGI [2] [µM]	TGI [3] [µM]	TGI [4] [µM]	TGI [5] [µM]	TGI [6] [µM]	TGI [7] [µM]	TGI [8] [µM]	TGI [9] [µM]	TGI [10] [µM]	GI50 [1] [µM]	GI50 [2] [µM]	GI50 [3] [µM]	GI50 [4] [µM]	GI50 [5] [µM]	GI50 [6] [µM]	GI50 [7] [µM]	GI50 [8] [µM]	GI50 [9] [µM]	GI50 [10] [µM]
CS(=O)(=O)CSCSSCS(C)(=O)=O	> 57.2	70.5	> 100	> 100	> 100	> 100	55.3	36.1	46.7	> 93.3	–	–	–	–	–	–	–	–	–	–
Cc1cc(Cl)ccc1Nc1nc(C(F)(F)F)ccc1C(=O)N/N=C/c1ccc([N+](=O)[O-])cc1	11.4	0.526	> 23.9	> 35.7	> 37.5	2.43	1.77	3.22	8.5	> 100	2.24	0.144	1.85	3.35	3.11	0.838	0.435	0.781	1.92	2.92
COc1ccc(-c2ccc(-c3ccc(C(=N)N)cn3)o2)cc1	20.7	13.7	12.9	22.6	11.1	15.5	10.1	20	15.9	22.5	6.79	3.2	3.26	10.5	3.4	4.41	2.78	7.01	4.91	8.01
Cc1nc2sccn2c1-c1csc(Nc2cccc(Cl)c2C)n1	33.3	82.1	20.1	> 100	14.7	21.8	33.3	37.6	14	> 100	3.73	4.01	4.67	10.3	3.29	3.79	3.83	4.19	3.78	6.06
CCn1c(-c2nonc2N)nc2c(C#CC(C)(C)O)nc(OCCNC)cc21	> 25	> 25	> 21.6	> 25	13.8	23.3	> 25	11	15.4	> 25	> 18.2	7.25	7.14	7.81	6.21	5.82	9.49	4.13	6.64	7.84
COc1ccccc1/C=C/C(=O)c1ccccc1	18.6	11.5	12.8	37	26.9	14.3	3.16	16.1	26.4	22.9	6.3	2.87	3.5	18.8	5.73	4.04	0.56	5.94	12	7.55
Cc1ccc(-c2cc(-c3ccco3)c(C#N)c(=O)n2C2OC(OC(=O)c3ccccc3)C(OC(=O)c3ccccc3)C2OC(=O)c2ccccc2)cc1 (stereo not given)	> 100	> 100	> 100	> 100	> 100	> 100	> 100	88.4	> 100	> 100	–	–	–	–	–	–	–	–	–	–
